Tests used:
[1] = Structural integrity of released Avastin (far-UV and fluorescence emission scans); assay type: physicochemical; details: after release from the nanogels, versus native and denatured controls
Method: Nanogels containing 0, 2 or 5 mol % acrylic acid (AA) loaded with 12.5 or 37.5 wt % Avastin were dispersed in 1 mL PBS (pH 7.4) inside a release device (Float-A-Lyzer® G2, Spectrum Laboratories Inc.) with MWCO 300 kDa at 20 mg/mL. The release device was immersed in 20 mL PBS (pH 7.4) in a 50 mL conical centrifuge tube, and the release was carried out in an incubator shaker at 70 rpm and 37° C. for 100 days. At selected times, the release device was transferred to a new PBS (pH 7.4) release media maintained at 37° C. The amount of Avastin released at each time point was measured using a BCA total protein assay kit (n=4). The fluorescence spectra of released Avastin at late time points were compared to native Avastin® to evaluate the structural integrity of the therapeutic antibody during release.

[2] = system: VEGF expression of hfRPE cells; assay: VEGF ELISA on hfRPE cells with and without UV treatment; assay type: cell-based, human; details: Avastin 0.25 mg/mL, nanogels 2 mg/mL, 24 hours
Method: To test the ability of Avastin®-loaded nanogels to affect VEGF expression, HfRPE cells were seeded in 96-well plates at a density of 100,000 cells/cm^2. After one day incubation, cell media for all groups was changed to PBS (pH 7.4). Half of all cells were exposed to UV light (1 J/cm) for one hour, and the other half were placed back into the cell incubator. After the 1-hour exposure, PBS (pH 7.4) for all wells were replaced with serum free media (DMEM+pen/strep), then Avastin® at concentration 0.25 mg/mL, and nanogels containing 2 mol % AA with and without 12.5 wt % Avastin® were added into the wells at a concentration of 2 mg/mL. Cells with and without UV treatment were used as controls.
After 24 hours, a VEGF ELISA assay was conducted on all experimental groups.

In the case of Bevacizumab [Avastin], the “secondary and tertiary protein structures” value [1] is reported as “intact”, the “VEGF expression of hfRPE” value ([2]; UV-treated cells) is reported as “reduces the VEGF expression to the level of the cells without UV treatment” and the “VEGF expression of hfRPE” value ([2]; cells without UV treatment) is reported as “do not change VEGF expression”.

— patent publication US20250255808A1, “NANOGEL PLATFORM TECHNOLOGY FOR LONG-TERM BIOLOGICS THERAPY” (UNIVERSITY OF MARYLAND, BALTIMORE, priority 2022, published 2025)
